Assay results reported in patent US20230159931A1, “TARGETING THE PALMOTYLATION/DEPALMOTYLATION CYCLE TO TREAT INFLAMMATORY DISEASES” (CORNELL UNIVERSITY, priority 2020, published 2023).

Target: T1, APT2 (Homo sapiens, UniProt O95372)
T1 construct: treated with LYPLA2 siRNA or 20 μM of ML349 for 36 h before Alk14 labelling; endogenous in cells; host or cells: DHHC7-knockout HEK293T cells re-expressing HA-DHHC7 and Flag-STAT3
Assay: STAT3 palmitoylation by Alk14 labelling and in-gel fluorescence after APT2 inhibition or knockdown
Type: cell-based
Conditions: DHHC7-knockout HEK293T cells reintroduced with HA-DHHC7 and Flag-STAT3; LYPLA2 siRNA or 20 μM of ML349 for 36 h
Text: FIGS. 2A-2H. APT2 is a depalmitoylase of STAT3 and palmitoylation/depalmitoylation promotes p-STAT3 nuclear localization. (A) C108 is the major palmitoylation site of STAT3. HEK293T cells were transfected with HA-DHHC7 and Flag-STAT3 (wild-type or mutants) and labelled with Alk14. STAT3 was pulled down and subjected to Alk14 labelling and western blot analyses. (B) Left, distribution of wild-type or C108S mutants of STAT3 and p-STAT3 in the subcellular fractions of DHHC7-knockout HEK293T cells into which DHHC7 or DHHS7 were reintroduced. Right, quantification of the relative p-STAT3 levels. (C) The subcellular localization of STAT3 and p-STAT3 was analysed using confocal imaging after different EGFP-STAT3 constructs and HA-tagged DHHC7 were transfected into DHHC7-knockout HEK293T cells. […] (D) In HEK293T cells, overexpression of wild-type APT2—but not the C2S or S122A mutants—decreased the palmitoylation level of Flag-STAT3 as determined by Alk14 labelling. […] The palmitoylation of STAT3 was determined by in-gel fluorescence (left) and quantified (right). […] DHHC7-knockout HEK293T cells were reintroduced with HA-DHHC7 and Flag-STAT3, and treated with LYPLA2 siRNA or 20 μM of ML349 for 36 h before Alk14 labelling and in-gel fluorescence detection. […] Right, quantification of the relative STAT3 and p-STAT3 levels in these fractions. […] Right, quantification of the relative STAT3 levels in these fractions. […]

T1 sequence (O95372 whole entry): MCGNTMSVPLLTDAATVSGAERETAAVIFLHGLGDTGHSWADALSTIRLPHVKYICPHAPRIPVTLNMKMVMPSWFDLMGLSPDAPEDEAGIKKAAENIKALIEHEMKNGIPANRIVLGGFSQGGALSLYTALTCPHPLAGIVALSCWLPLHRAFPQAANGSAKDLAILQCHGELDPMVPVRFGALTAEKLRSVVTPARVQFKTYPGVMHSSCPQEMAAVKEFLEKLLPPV

With `COc1ccc(N2CCN(C(=O)c3cc4c(s3)-c3ccccc3S(=O)(=O)C4)CC2)cc1` [ML349] the STAT3 palmitoylation was “increased STAT3 palmitoylation”.
